Laboratory results: the NIST ThermoML archive (doi:10.1016/j.jct.2012.03.003)
± gives the expanded uncertainty stated by the source.

Assay: xn = mol fraction of the nth substance listed
Conditions: Liquid, Vibrating tube method

COc1cc2c(cc1O)CC1c3c(cc(O)c(OC)c3-2)CCN1C (stereo not given) [boldine] + CCCO
Conditions | mass density [kg/m3]
362.92 K, 3000 kPa, x1 = 0.0077 | 759.06 ± 0.68
362.92 K, 4000 kPa, x1 = 0.0046 | 756.24 ± 0.71
362.92 K, 4000 kPa, x1 = 0.0077 | 760.16 ± 0.68
362.92 K, 5000 kPa, x1 = 0.0046 | 757.34 ± 0.72
362.92 K, 5000 kPa, x1 = 0.0077 | 761.28 ± 0.68
362.92 K, 6000 kPa, x1 = 0.0046 | 758.46 ± 0.72
362.92 K, 6000 kPa, x1 = 0.0077 | 762.37 ± 0.69
362.92 K, 7000 kPa, x1 = 0.0046 | 759.55 ± 0.72
362.92 K, 7000 kPa, x1 = 0.0077 | 763.46 ± 0.69
362.92 K, 8000 kPa, x1 = 0.0046 | 760.63 ± 0.72
362.92 K, 8000 kPa, x1 = 0.0077 | 764.54 ± 0.69
362.92 K, 9000 kPa, x1 = 0.0046 | 761.7 ± 0.73
362.92 K, 9000 kPa, x1 = 0.0077 | 765.61 ± 0.71
362.92 K, 10000 kPa, x1 = 0.0046 | 762.78 ± 0.73
362.92 K, 10000 kPa, x1 = 0.0077 | 766.65 ± 0.7
362.92 K, 11000 kPa, x1 = 0.0046 | 763.79 ± 0.73
362.92 K, 11000 kPa, x1 = 0.0077 | 767.68 ± 0.7
362.92 K, 12000 kPa, x1 = 0.0046 | 764.85 ± 0.74
362.92 K, 12000 kPa, x1 = 0.0077 | 768.72 ± 0.7
362.92 K, 13000 kPa, x1 = 0.0046 | 765.87 ± 0.74
362.92 K, 13000 kPa, x1 = 0.0077 | 769.74 ± 0.71
362.92 K, 14000 kPa, x1 = 0.0046 | 766.88 ± 0.74
362.92 K, 14000 kPa, x1 = 0.0077 | 770.74 ± 0.71
362.92 K, 15000 kPa, x1 = 0.0046 | 767.86 ± 0.75
362.92 K, 15000 kPa, x1 = 0.0077 | 771.74 ± 0.72
362.92 K, 16000 kPa, x1 = 0.0046 | 768.85 ± 0.75
362.92 K, 16000 kPa, x1 = 0.0077 | 772.72 ± 0.72
362.92 K, 17000 kPa, x1 = 0.0046 | 769.81 ± 0.75
362.92 K, 17000 kPa, x1 = 0.0077 | 773.68 ± 0.72
362.92 K, 18000 kPa, x1 = 0.0046 | 770.76 ± 0.76
362.92 K, 18000 kPa, x1 = 0.0077 | 774.6 ± 0.73
362.92 K, 19000 kPa, x1 = 0.0046 | 771.7 ± 0.76
362.92 K, 19000 kPa, x1 = 0.0077 | 775.55 ± 0.73
362.92 K, 20000 kPa, x1 = 0.0046 | 772.56 ± 0.77
362.92 K, 20000 kPa, x1 = 0.0077 | 776.45 ± 0.74
362.93 K, 1000 kPa, x1 = 0.0112 | 763.51 ± 0.72
362.93 K, 2000 kPa, x1 = 0.0112 | 764.63 ± 0.72
362.93 K, 3000 kPa, x1 = 0.0112 | 765.74 ± 0.72
362.93 K, 4000 kPa, x1 = 0.0112 | 766.83 ± 0.73
362.93 K, 5000 kPa, x1 = 0.0112 | 767.93 ± 0.72
362.93 K, 6000 kPa, x1 = 0.0112 | 769 ± 0.73
362.93 K, 7000 kPa, x1 = 0.0112 | 770.08 ± 0.73
362.93 K, 8000 kPa, x1 = 0.0112 | 771.14 ± 0.74
362.93 K, 9000 kPa, x1 = 0.0112 | 772.39 ± 0.74
362.93 K, 10000 kPa, x1 = 0.0112 | 773.24 ± 0.74
362.93 K, 11000 kPa, x1 = 0.0112 | 774.29 ± 0.74
362.93 K, 12000 kPa, x1 = 0.0112 | 775.28 ± 0.75
362.93 K, 13000 kPa, x1 = 0.0112 | 776.29 ± 0.75
362.93 K, 14000 kPa, x1 = 0.0112 | 777.28 ± 0.75
362.93 K, 15000 kPa, x1 = 0.0112 | 778.25 ± 0.75
362.93 K, 16000 kPa, x1 = 0.0112 | 779.21 ± 0.76
362.93 K, 17000 kPa, x1 = 0.0112 | 780.16 ± 0.76
362.93 K, 18000 kPa, x1 = 0.0112 | 781.11 ± 0.76
362.93 K, 19000 kPa, x1 = 0.0112 | 782.03 ± 0.77
362.93 K, 20000 kPa, x1 = 0.0112 | 782.93 ± 0.77
362.94 K, 1000 kPa, x1 = 0.0018 | 746.61 ± 0.91
362.94 K, 2000 kPa, x1 = 0.0018 | 747.75 ± 0.91
362.94 K, 3000 kPa, x1 = 0.0018 | 748.91 ± 0.91
362.94 K, 4000 kPa, x1 = 0.0018 | 750.05 ± 0.91
362.94 K, 5000 kPa, x1 = 0.0018 | 751.17 ± 0.91
362.94 K, 6000 kPa, x1 = 0.0018 | 752.28 ± 0.91
362.94 K, 7000 kPa, x1 = 0.0018 | 753.38 ± 0.91
362.94 K, 8000 kPa, x1 = 0.0018 | 754.49 ± 0.92
362.94 K, 9000 kPa, x1 = 0.0018 | 755.54 ± 0.92
362.94 K, 10000 kPa, x1 = 0.0018 | 756.62 ± 0.92
362.94 K, 11000 kPa, x1 = 0.0018 | 757.69 ± 0.92
362.94 K, 12000 kPa, x1 = 0.0018 | 758.72 ± 0.93
362.94 K, 13000 kPa, x1 = 0.0018 | 759.77 ± 0.93
362.94 K, 14000 kPa, x1 = 0.0018 | 760.8 ± 0.93
362.94 K, 15000 kPa, x1 = 0.0018 | 761.77 ± 0.93
362.94 K, 16000 kPa, x1 = 0.0018 | 762.79 ± 0.93
362.94 K, 17000 kPa, x1 = 0.0018 | 763.76 ± 0.94
362.94 K, 18000 kPa, x1 = 0.0018 | 764.68 ± 0.94
362.94 K, 19000 kPa, x1 = 0.0018 | 765.63 ± 0.95
362.94 K, 20000 kPa, x1 = 0.0018 | 766.58 ± 0.94
